Values joined by “and” are separate entries in the source; they are usually repeats but may differ in a detail not shown here. Equal values may be shown once.
Key:
patients with MUM = assay: First cycle dose-limiting toxicities, phase I dose escalation; format: in vivo; settings: for Maximum tolerated dose (MTD): BLRM and EWOC
Method: The study protocol and amendments were approved by the Independent Ethics Committee or Institutional Review Board for each centre, and all patients provided written informed consent. The study was conducted according to the principles of the Declaration of Helsinki and performed in compliance with Good Clinical Practice. All patients were aged ≥18 years old and had biopsy-proven MUM with progressive and measurable disease. […] There was no eligibility limit to the number of prior lines of therapy, including PKC inhibitors other than LXS196.
During dose escalation, patients received oral LXS196 either once daily (QD; 100–1000 mg) or twice daily (BID; 200–400 mg) in 28-day cycles until disease progression, intolerable toxicity or withdrawal of consent (Supplementary Fig. 1). Dosing was omitted on the second day of the first cycle (C1D2) to allow for longer post-dose sampling in order to better characterise PK. LXS196 was given on an empty stomach, at least 1 h before or 2 h after a meal. Dose escalation was guided by safety, PK data and a two-parameter Bayesian Logistic Regression Model (BLRM) employing escalation with overdose control (EWOC) criteria. The DLT period lasted 28 days after the first dose of LXS196. […] Upon determination of the MTD/RDE, the expansion part of the study was opened to further evaluate the safety, tolerability, PK and PD of LXS196 at the RDE in patients with MUM. No hypothesis testing was planned in this study, and therefore, no formal sample size calculation was needed. The sample size was selected to ensure the BLRM had adequate operating characteristics when selecting the MTD/RDE.
Routine safety assessments, including laboratory assessments, physical examinations, vital signs and electrocardiograms (ECGs), were conducted at regular intervals throughout the study and more frequently as needed following patient assessment by the treating physician. Adverse events (AEs) were assessed continuously according to the National Cancer Institute Common Terminology Criteria for Adverse Events (NCI-CTCAE) v4.03.

pPKC delta = pPKC delta in PBMCs; format: in vivo, human; settings: all dose levels
Description: Fresh metastatic tumour biopsies were collected at baseline (prior to first dose) and on treatment at C1D15 to evaluate the modulation of PKC substrate proteins in tumours following exposure to LXS196 and to perform exploratory transcriptome and targeted DNA sequencing. Whole blood samples (peripheral blood mononuclear cells; PBMCs) were collected pre-dose on C1D1 and D15, and at various time points post-dose on C1D1, D2, D3, D15 and D16 to evaluate the modulation of PKC substrate proteins in a surrogate tissue. Owing to the exploratory nature of this phase I study, formal statistical tests were not planned to be performed. Data are presented using descriptive statistics and visualisations. Continuous variables are described with the mean and range. Categorical variables are described using counts and percentages. PFS is described using the Kaplan–Meier (KM) method.

[1] = system: skin-derived melanoma cell lines driven by mutant B-Raf or N-Ras; parameters: method as in ref 18 = [18]; 18. Visser M, Papillon J, Fan J, Luzzio M, Michael W, Wang R, et al. NVP-LXS196, a novel PKC inhibitor for the treatment of uveal melanoma. Paper presented at: Abstracts of papers of the American Chem; settings: cited from earlier work

CC1(N)CCN(c2cccnc2NC(=O)c2nc(-c3ncccc3C(F)(F)F)cnc2N)CC1 [LXS196]
1 (100) n (%): Total DLT events (patients with MUM; 800 mg QD n=1)
400 mg: Maximum tolerated dose (MTD) (patients with MUM; BID schedule)
1.8 n (%) and 1 (1.8) n (%): Generalised oedema DLT (patients with MUM; All patients n=55) | Nausea DLT (patients with MUM; All patients n=55) | Neutropenia DLT (patients with MUM; All patients n=55) | Vomiting DLT (patients with MUM; All patients n=55)
1 (9.1) (Grade 4) n (%): Neutropenia DLT (patients with MUM; 500 mg QD n=11, Grade 4)
1 (25.0) (Grade 3) n (%): Nausea DLT (patients with MUM; 200 mg QD n=4, Grade 3) | Vomiting DLT (patients with MUM; 200 mg QD n=4, Grade 3)
300 mg: Recommended dose for expansion (RDE) (patients with MUM; BID)
1 (16.7) n (%): Hypotension DLT (patients with MUM; 400 mg BID n=6)
≥ 500 mg/day: Doses at which hypotension DLT occurred (patients with MUM; most common DLT)
1 (100) (Grade 4) n (%): Hypotension DLT (patients with MUM; 800 mg QD n=1, Grade 4)
16.4 n (%): Total DLT events (patients with MUM; All patients n=55)
2 (11.8) n (%): Total DLT events (patients with MUM; All BID n=17)
6 (10.9) n (%): Hypotension DLT (patients with MUM; All patients n=55)
3 (27.3) n (%): Total DLT events (patients with MUM; 500 mg QD n=11)
1 (16.7) (Grade 3) n (%): Generalised oedema DLT (patients with MUM; 400 mg BID n=6, Grade 3)
0 n (%): Generalised oedema DLT (patients with MUM; 100 mg QD n=3) | Hypotension DLT (patients with MUM; 100 mg QD n=3) | Nausea DLT (patients with MUM; 100 mg QD n=3) | Neutropenia DLT (patients with MUM; 100 mg QD n=3) | Total DLT events (patients with MUM; 100 mg QD n=3) | Vomiting DLT (patients with MUM; 100 mg QD n=3) | Generalised oedema DLT (patients with MUM; 200 mg BID n=5) | Hypotension DLT (patients with MUM; 200 mg BID n=5) | Nausea DLT (patients with MUM; 200 mg BID n=5) | Neutropenia DLT (patients with MUM; 200 mg BID n=5) | Total DLT events (patients with MUM; 200 mg BID n=5) | Vomiting DLT (patients with MUM; 200 mg BID n=5) | Generalised oedema DLT (patients with MUM; 200 mg QD n=4) | Hypotension DLT (patients with MUM; 200 mg QD n=4) | Neutropenia DLT (patients with MUM; 200 mg QD n=4) | Generalised oedema DLT (patients with MUM; 300 mg BID n=6) | Hypotension DLT (patients with MUM; 300 mg BID n=6) | Nausea DLT (patients with MUM; 300 mg BID n=6) | Neutropenia DLT (patients with MUM; 300 mg BID n=6) | Total DLT events (patients with MUM; 300 mg BID n=6) | Vomiting DLT (patients with MUM; 300 mg BID n=6) | Generalised oedema DLT (patients with MUM; 300 mg QD n=15) | Hypotension DLT (patients with MUM; 300 mg QD n=15) | Nausea DLT (patients with MUM; 300 mg QD n=15) | Neutropenia DLT (patients with MUM; 300 mg QD n=15) | Total DLT events (patients with MUM; 300 mg QD n=15) | Vomiting DLT (patients with MUM; 300 mg QD n=15) | Nausea DLT (patients with MUM; 400 mg BID n=6) | Neutropenia DLT (patients with MUM; 400 mg BID n=6) | Vomiting DLT (patients with MUM; 400 mg BID n=6) | Generalised oedema DLT (patients with MUM; 500 mg QD n=11) | Nausea DLT (patients with MUM; 500 mg QD n=11) | Vomiting DLT (patients with MUM; 500 mg QD n=11) | Generalised oedema DLT (patients with MUM; 800 mg QD n=1) | Nausea DLT (patients with MUM; 800 mg QD n=1) | Neutropenia DLT (patients with MUM; 800 mg QD n=1) | Vomiting DLT (patients with MUM; 800 mg QD n=1) | Generalised oedema DLT (patients with MUM; 1000 mg QD n=4) | Nausea DLT (patients with MUM; 1000 mg QD n=4) | Neutropenia DLT (patients with MUM; 1000 mg QD n=4) | Vomiting DLT (patients with MUM; 1000 mg QD n=4) | Nausea DLT (patients with MUM; All BID n=17) | Neutropenia DLT (patients with MUM; All BID n=17) | Vomiting DLT (patients with MUM; All BID n=17) | Generalised oedema DLT (patients with MUM; All QD n=38)
no activity observed: Cellular activity [1]
2 (50.0) n (%): Total DLT events (patients with MUM; 200 mg QD n=4) | Total DLT events (patients with MUM; 1000 mg QD n=4)
1 (5.9) n (%): Generalised oedema DLT (patients with MUM; All BID n=17) | Hypotension DLT (patients with MUM; All BID n=17)
8 (21.0) n (%): Total DLT events (patients with MUM; All QD n=38)
2 (18.2) (Grade 3) n (%): Hypotension DLT (patients with MUM; 500 mg QD n=11, Grade 3)
2 (50.0) (Grade 2 and 4) n (%): Hypotension DLT (patients with MUM; 1000 mg QD n=4, Grade 2 and 4)
2 (33.4) n (%): Total DLT events (patients with MUM; 400 mg BID n=6)
≤ 6 h: Time post-dose to reduction in pPKC delta in PBMCs (pPKC delta)
500 mg: Maximum tolerated dose (MTD) (patients with MUM; QD schedule)
1 (2.6) n (%): Nausea DLT (patients with MUM; All QD n=38) | Neutropenia DLT (patients with MUM; All QD n=38) | Vomiting DLT (patients with MUM; All QD n=38)
5 (13.2) n (%): Hypotension DLT (patients with MUM; All QD n=38)

— paper PMC10006169, “A phase I trial of LXS196, a protein kinase C (PKC) inhibitor, for metastatic uveal melanoma” (British Journal of Cancer, 2023)
